Test results: patent US20260027116A1, “Methods of Treating Chronic Graft-Versus-Host Disease Following Allogeneic Hematopoietic Stem Cell Transplantation” (Kadmon Corporation, LLC, priority 2022, published 2026)

Columns and labels:
[1] = target: T1, UGT1A1 (Homo sapiens, UniProt P22309); experiment: enzyme inhibition in vitro; type: in vitro ADME
T1 sequence (P22309 26-533): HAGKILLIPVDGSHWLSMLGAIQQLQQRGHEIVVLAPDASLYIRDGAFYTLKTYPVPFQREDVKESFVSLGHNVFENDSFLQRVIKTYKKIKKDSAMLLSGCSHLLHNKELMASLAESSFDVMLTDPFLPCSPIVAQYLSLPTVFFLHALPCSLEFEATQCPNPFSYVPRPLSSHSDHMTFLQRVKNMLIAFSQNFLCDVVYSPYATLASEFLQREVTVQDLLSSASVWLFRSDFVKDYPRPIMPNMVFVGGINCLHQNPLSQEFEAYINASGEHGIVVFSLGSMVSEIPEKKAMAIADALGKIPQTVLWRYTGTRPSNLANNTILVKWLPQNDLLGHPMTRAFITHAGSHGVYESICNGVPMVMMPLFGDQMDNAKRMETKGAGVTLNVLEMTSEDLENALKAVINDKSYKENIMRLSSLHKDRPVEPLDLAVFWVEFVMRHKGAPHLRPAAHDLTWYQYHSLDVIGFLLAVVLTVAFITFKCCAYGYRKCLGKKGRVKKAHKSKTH

[2] = system: cGVHD symptoms; experiment: Example 1: Global Severity Rating (GSR); type: in vivo, human
Description: Maximal Improvement from Baseline in Global Severity Rating (GSR) by Clinician-reported cGVHD Assessment. […] The response was defined using the scores from 9 organs: skin, eyes, mouth, esophagus, upper gastrointestinal (GI) track, lower GI tract, liver, lungs, and joints and fascia plus GSR. End of treatment (EOT) visit was performed within 3 days after the participant's last dose of study drug. […] Analysis was performed on mITT population.

`CC(C)NC(=O)COc1cccc(-c2nc(Nc3ccc4[nH]ncc4c3)c3ccccc3n2)c1` [Belumosudil, 2-{3-[4-(1H-indazol-5-ylamino)-2-quinazolinyl]phenoxy}-N-(propan-2-yl) acetamide] was tested, and the “inhibition of UGT1A1” value [1] was “inhibitor”, the “GSR maximal improvement 0, participants (%)” value ([2]; Cohort 1 200 mg QD) was 5 (29%) participants and the “GSR maximal improvement 1, participants (%)” value ([2]; Cohort 1 200 mg QD) was 0 (0%) participants. For the same compound, the “GSR maximal improvement 3, participants (%)” value ([2]; Cohort 1 200 mg QD) was 0 (0%) participants, the “GSR maximal improvement from baseline −7, participants (%)” value ([2]; Cohort 1 200 mg QD) was 0 (0%) participants and the “GSR maximal improvement −1, participants (%)” value ([2]; Cohort 1 200 mg QD) was 1 (6%) participants. The “GSR maximal improvement −2, participants (%)” value ([2]; Cohort 1 200 mg QD) was 2 (12%) participants, the “GSR maximal improvement −3, participants (%)” value ([2]; Cohort 1 200 mg QD) was 4 (24%) participants and the “GSR maximal improvement −4, participants (%)” value ([2]; Cohort 1 200 mg QD) was 2 (12%) participants. The “GSR maximal improvement −5, participants (%)” value ([2]; Cohort 1 200 mg QD) was 2 (12%) participants, the “GSR maximal improvement −6, participants (%)” value ([2]; Cohort 1 200 mg QD) was 0 (0%) participants and the “GSR maximal improvement 0, participants (%)” value ([2]; Cohort 2 200 mg BID) was 4 (25%) participants. For the same compound, the “GSR maximal improvement 1, participants (%)” value ([2]; Cohort 2 200 mg BID) was 1 (6%) participants, the “GSR maximal improvement 3, participants (%)” value ([2]; Cohort 2 200 mg BID) was 1 (6%) participants and the “GSR maximal improvement from baseline −7, participants (%)” value ([2]; Cohort 2 200 mg BID) was 0 (0%) participants. For the same compound, the “GSR maximal improvement −1, participants (%)” value ([2]; Cohort 2 200 mg BID) was 2 (13%) participants, the “GSR maximal improvement −2, participants (%)” value ([2]; Cohort 2 200 mg BID) was 4 (25%) participants and the “GSR maximal improvement −3, participants (%)” value ([2]; Cohort 2 200 mg BID) was 0 (0%) participants. For the same compound, the “GSR maximal improvement −4, participants (%)” value ([2]; Cohort 2 200 mg BID) was 0 (0%) participants, the “GSR maximal improvement −5, participants (%)” value ([2]; Cohort 2 200 mg BID) was 2 (13%) participants and the “GSR maximal improvement −6, participants (%)” value ([2]; Cohort 2 200 mg BID) was 2 (13%) participants. The “GSR maximal improvement 0, participants (%)” value ([2]; Cohort 3 400 mg QD) was 3 (14%) participants, the “GSR maximal improvement 1, participants (%)” value ([2]; Cohort 3 400 mg QD) was 1 (5%) participants and the “GSR maximal improvement 3, participants (%)” value ([2]; Cohort 3 400 mg QD) was 0 (0%) participants. The “GSR maximal improvement from baseline −7, participants (%)” value ([2]; Cohort 3 400 mg QD) was 2 (10%) participants, the “GSR maximal improvement −1, participants (%)” value ([2]; Cohort 3 400 mg QD) was 4 (19%) participants and the “GSR maximal improvement −2, participants (%)” value ([2]; Cohort 3 400 mg QD) was 4 (19%) participants. The “GSR maximal improvement −3, participants (%)” value ([2]; Cohort 3 400 mg QD) was 1 (5%) participants, the “GSR maximal improvement −4, participants (%)” value ([2]; Cohort 3 400 mg QD) was 3 (14%) participants and the “GSR maximal improvement −5, participants (%)” value ([2]; Cohort 3 400 mg QD) was 0 (0%) participants. For the same compound, the “GSR maximal improvement −6, participants (%)” value ([2]; Cohort 3 400 mg QD) was 0 (0%) participants.
